Legend:
[1] = test system: defense-related genes in tomato plants; test: Induction of defense gene expression of tomato plants (RT-qPCR); format: in vivo, tomato cv. Rio Grande; conditions: for BCB gene expression, fold induction / ERT3 gene expression, fold induction / GluA gene expression, fold induction / Harp gene expression, fold induction / LOX gene expression, fold induction / Osm2 gene expression, fold induction / PPO gene expression, fold induction / PR1 gene expression, fold induction / Sub1 gene expression, fold induction / Tas14 gene expression, fold induction / PinII gene expression, fold induction: tomato leaves sprayed, 24 h, peptides and flg15 125 μM, JA 2.5 mM, ASM 300 mg/L, ΔΔCt relative to actin, above 2 = overexpression; for Defense gene expression in tomato plants (genes overexpressed) / Number of defense-related genes significantly induced: treatment at 125 μM; for Defense gene expression in tomato plants (genes overexpressed): significant overexpression (REST2009)
Method: Seeds of tomato cv. Rio Grande plants were sown in hydroponic seed plugs (rockwool), germinated and grown under controlled greenhouse conditions (25 ± 2°C, 16 h light / 15 ± 2°C, 8 h dark, and 60% RH). Two-week old seedlings (two cotyledons) were transplanted into rockwool plugs (7.5×7.5×6.5 cm, Grodan Iberica). The experimental design consisted of three replicates of three plants per treatment. After two weeks, tomato leaves were sprayed with aqueous solutions of BP100, 9 selected derivatives and flg15 at 125 μM, jasmonic acid at 2.5 mM (Sigma-Aldrich, Sant Louis, Missouri, UE), and acybenzolar-S-methyl at 300 mg/L (Syngenta, Basel, Switzerland), until the run-off point. Water-sprayed plants were used as not treated controls. Twenty-four hours after product application leaf samples were collected and processed to extract RNA for RT-qPCR assays. Plant material was ground to a fine powder in liquid nitrogen with the Tissuelyzer II system (Qiagen). Total RNA was extracted from leaves using PureLink Plant RNA Reagent (Invitrogen, Life Technologies) according to the manufacturer’s manual. The RNA was solubilized in RNAse free water and was routinely subjected to DNAse treatment (Ambion® Turbo DNA-free™, Life Technologies) to remove any contaminant DNA. In each step, the RNA was quantified using a Nanodrop N-2000 spectrophotometer, and its integrity verified by denaturing agarose gel electrophoresis. First-strand of complementary DNA (cDNA) was generated from leave RNA using reverse transcriptase (High Capacity cDNA Reverse Transcription Kit, Invitrogen) according to the manufacturer’s manual.
To test gene defense induction in the treated tomato plants, a qPCR assay was performed. Quantitative PCR was carried out in a fluorometric thermal cycler (qPCR Quant Studio 5, Applied Biosystems) by using a Mix SYBR®Green PCR Master Mix (Applied Biosystems). The total reaction volume of this PCR reaction was 20 μL and the reaction mixture was 1 μL of each primer set at the adequate concentration, 10 μL of MixSyber Green, 6 μL of distilled water and 2 μL of cDNA. Melting curve analysis was performed after amplification to verify amplification specificity. A constitutive gene (actin gene) was used as reference control, and the following genes implicated in plant defense response were analyzed: Pathogenesis-related protein-1 (PR1), Harpin (Harp), Polyphenol oxidase (PPO), Subtilisin-like protease (Sub1), Blue copper binding-protein (BCB), Osmotin (Osm2), Acidic β-1,3 endoglucanase (GluA), Lypoxigenase (LOX), Protein inhibitor II (PinII), Dehydrin (Tas14) and Ethylene response transcription factor (ERT3). […] For each gene system, the concentration of the primer pair was optimized. The primer concentration was 100 nM for all the genes except for the GluA, Harp, PR1 and actin genes which optimized concentration was 300 nM. A calibration curve was prepared by cloning the corresponding DNA in the pSpark cloning vector (Canvax, Córdoba, Spain) according to the manufacturer instructions, which was then used to transform E. coli DH5α by standard procedures. The number of plasmid copies were quantified after purification from E. coli (QIAGEN Iberia, S. L., Madrid, Spain), and appropriate dilutions were prepared to obtain the standard curve. […] Relative quantification of gene expression was done using the ΔΔCt method. Each biological repetition treatment was analyzed in duplicate. The mean of the Ct values obtained were used to estimate the fold change value of the endogenous reference gene (actin) and the target plant defense genes.

[2] = test system: T1, proteinase K; test: Susceptibility to protease degradation; format: in vitro ADME; conditions: proteinase K (isolated protease) in TRIS buffer; 50 μg/mL peptide, 1 μg/mL proteinase K, 100 mM TRIS buffer pH 7.6, 25°C, 60 min; decrease of HPLC peak area (220 nm); read-out: Digestion with proteinase K (percentage of degraded peptide)
T1 construct: purchased Sigma-Aldrich Corporation, Spain
Method: Digestion of BP100 and of 16 selected lipopeptides was carried out by treating 50 μg/mL peptide with 1 μg/mL proteinase K (Sigma-Aldrich Corporation, Spain) in 100 mM TRIS buffer, pH 7.6, at 25°C. The peptide cleavage after 60 min was determined by HPLC using a Kromasil (4.6 × 40 mm; 3 μm particle size) C18 reverse-phase column. Linear gradients of 0.1% aqueous TFA and 0.1% TFA in CH3CN were run from 0.98:0.02 to 0:1 over 12 min with UV detection at 220 nm. Digestion was estimated as the percentage of degraded lipopeptide calculated from the decrease of the HPLC peak area of the native peptide.

[3] = test system: tobacco leaves; test: Effect of peptide infiltration on tobacco leaves; format: in vivo; conditions: for Size of the lesions in infiltrated tobacco leaves (diameter): 250 μM, 100 μL infiltrated into mesophyll, measured after 48 h

SMILES | BCB gene expression, fold induction [1] | ERT3 gene expression, fold induction [1] | GluA gene expression, fold induction [1] | Harp gene expression, fold induction [1] | LOX gene expression, fold induction [1] | Osm2 gene expression, fold induction [1] | PPO gene expression, fold induction [1] | PR1 gene expression, fold induction [1] | Sub1 gene expression, fold induction [1] | Tas14 gene expression, fold induction [1] | Defense gene expression in tomato plants (genes overexpressed) [1] | metabolised at 1 h, 50 μg/mL [2] | Size of the lesions in infiltrated tobacco leaves (diameter) [3] | PinII gene expression, fold induction [1] | Number of defense-related genes significantly induced [1] | Reaction observed in the area of infiltration of tobacco leaves ([3]; in contrast to melittin)
CCCC(=O)NCCCC[C@H](NC(=O)[C@@H](NC(=O)[C@H](CCCCN)NC(=O)[C@H](CCCCN)NC(=O)[C@H](Cc1ccccc1)NC(=O)[C@H](CC(C)C)NC(=O)[C@H](CCCCN)NC(=O)[C@H](CCCCN)NC(C)=O)[C@@H](C)CC)C(=O)N[C@@H](CCCCN)C(=O)N[C@@H](Cc1ccc(O)cc1)C(=O)N[C@@H](CC(C)C)C(N)=O [BP387, Ac-KKLFKKIK(COC3H7)KYL-NH2] | 1.7 | 0.2 | 0.7 | 1.2 | 0.7 | 1.0 | 1.3 | 0.4 | 0.8 | 1.0 | none | 15% | 9.2 ± 0.96 mm | – | – | –
CCCC(=O)NCCCC[C@H](NC(=O)[C@H](CCCCN)NC(=O)[C@H](CC(C)C)NC(=O)[C@@H](NC(=O)[C@H](CCCCN)NC(=O)[C@H](CCCCN)NC(=O)[C@H](Cc1ccccc1)NC(=O)[C@H](CC(C)C)NC(=O)[C@H](CCCCN)NC(=O)[C@H](CCCCN)NC(C)=O)[C@@H](C)CC)C(=O)N[C@@H](CC(C)C)C(N)=O [BP389, Ac-KKLFKKILKK(COC3H7)L-NH2] | 2.1 | 0.1 | 0.3 | 0.9 | 1.2 | 1.0 | 0.5 | 0.3 | 0.5 | 0.7 | PinII and BCB | 29% | 9.0 ± 2.9 mm | 2.8 | 2 | –
CCCCCC(=O)NCCCC[C@H](NC(=O)[C@H](Cc1ccc(O)cc1)NC(=O)[C@H](CCCCN)NC(=O)[C@H](CC(C)C)NC(=O)[C@@H](NC(=O)[C@H](CCCCN)NC(=O)[C@H](CCCCN)NC(=O)[C@H](Cc1ccccc1)NC(=O)[C@H](CC(C)C)NC(=O)[C@H](CCCCN)NC(=O)[C@H](CCCCN)NC(C)=O)[C@@H](C)CC)C(N)=O [BP378, Ac-KKLFKKILKYK(COC5H11)-NH2] | 1.3 | 1.0 | 0.6 | 1.2 | 1.5 | 2.9 | 1.7 | 2.0 | 0.9 | 3.5 | PinII, Osm2 and Tas14 | 45% | 13.2 ± 4.7 mm | 5.8 | 3 | not a typical necrosis
CCCC(=O)NCCCC[C@H](NC(=O)[C@H](CCCCN)NC(C)=O)C(=O)N[C@@H](CC(C)C)C(=O)N[C@@H](Cc1ccccc1)C(=O)N[C@@H](CCCCN)C(=O)N[C@@H](CCCCN)C(=O)N[C@H](C(=O)N[C@@H](CC(C)C)C(=O)N[C@@H](CCCCN)C(=O)N[C@@H](Cc1ccc(O)cc1)C(=O)N[C@@H](CC(C)C)C(N)=O)[C@@H](C)CC [BP381, Ac-KK(COC3H7)LFKKILKYL-NH2] | 1.2 | 0.7 | 0.6 | 0.7 | 0.8 | 2.1 | 1.3 | 0.2 | 0.5 | 3.4 | one gene (Osm2, Tas14 or BCB) and Osm2 | 53% | 10.8 ± 1.9 mm | 0.4 | – | –

Reference: publication PMC6063448, “Antimicrobial activity of linear lipopeptides derived from BP100 towards plant pathogens” (PLoS ONE, 2018)
